Read-outs that look alike come from different tables or passages of the source.
Legend:
BTK = BTK (Homo sapiens, UniProt Q06187); assay: Degradation of BTK protein in Namalwa cells (Western blot; DC50, Dmax); conditions: for DC50: read-out: DC50 (BTK degradation), concentration giving 50% reduction of BTK expression level, cell line not given; for Dmax: read-out: Dmax (BTK degradation)
Mino cells = assay: Antiproliferative effect, MTS cell viability assay, Mino cells; format: cell-based; conditions: Homo sapiens, Mino mantle cell lymphoma cells, read-out: IC50 (anti-proliferation) Mino cells
Procedure, shortened: (§1)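 Absorbance at 490 nm of formazan, formed by metabolically active cells from MTS tetrazolium, served as the viability measure after a 72 h treatment across a 0.001–10 μM concentration series plus untreated control.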

JeKo-1 cells = assay: Antiproliferative effect, MTS cell viability assay, JeKo-1 cells; format: cell-based; conditions: Homo sapiens; JeKo-1 mantle cell lymphoma cells; read-out: IC50 (anti-proliferation) JeKO-1 cells
Procedure, shortened: as §1

Chain of BTK (Q06187 whole entry): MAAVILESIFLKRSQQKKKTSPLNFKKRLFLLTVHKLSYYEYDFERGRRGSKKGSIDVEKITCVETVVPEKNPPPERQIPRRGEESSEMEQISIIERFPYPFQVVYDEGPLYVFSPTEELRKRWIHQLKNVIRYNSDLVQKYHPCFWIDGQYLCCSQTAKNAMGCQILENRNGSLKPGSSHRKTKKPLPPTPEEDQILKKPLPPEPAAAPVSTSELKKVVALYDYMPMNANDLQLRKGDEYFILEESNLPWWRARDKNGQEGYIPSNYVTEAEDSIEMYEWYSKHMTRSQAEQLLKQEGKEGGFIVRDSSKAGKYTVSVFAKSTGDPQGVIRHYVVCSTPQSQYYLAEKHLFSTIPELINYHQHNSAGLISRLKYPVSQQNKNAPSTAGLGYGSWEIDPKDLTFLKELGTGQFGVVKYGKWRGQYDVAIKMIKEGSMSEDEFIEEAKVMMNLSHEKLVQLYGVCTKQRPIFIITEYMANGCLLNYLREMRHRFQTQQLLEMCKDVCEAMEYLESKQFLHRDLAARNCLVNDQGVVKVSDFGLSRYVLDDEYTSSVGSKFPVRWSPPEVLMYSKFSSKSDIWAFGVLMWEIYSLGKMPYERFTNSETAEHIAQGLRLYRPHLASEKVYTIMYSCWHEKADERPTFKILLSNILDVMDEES

Row | Structure (SMILES) | DC50 (BTK) [nM] | Dmax (BTK) [%] | IC50 (Mino cells; MINO) [nM] | IC50 (JeKo-1 cells) [nM] | IC50 (Mino cells) [nM]
1 | Nc1ncnc2c1c(-c1ccc(Oc3ccccc3)cc1)nn2C1CCN(CCCCC#Cc2ccc(N3CCC(=O)NC3=O)cc2)CC1 [Compound 539, 1-(4-(6-(4-(4-amino-3-(4-phenoxyphenyl)-1H-pyrazolo[3,4-d]pyrimidin-1-yl)piperidin-1-yl)hex-1-yn-1-yl)phenyl)dihydropyrimidine-2,4(1H,3H)-dione] | > 50 | > 50 | > 10000 | > 10000 | 
2 | Nc1ncnc2c1c(-c1ccc(Oc3ccccc3)cc1)nn2C1CCN(CCC#Cc2ccc(N3CCC(=O)NC3=O)cc2)CC1 [Compound 540, 1-(4-(4-(4-(4-amino-3-(4-phenoxyphenyl)-1H-pyrazolo[3,4-d]pyrimidin-1-yl)piperidin-1-yl)but-1-yn-1-yl)phenyl)dihydropyrimidine-2,4(1H,3H)-dione] | > 50 | > 50 | > 10000 | > 10000 | 
3 | Nc1ncnc2c1c(-c1ccc(Oc3ccccc3)cc1)nn2C1CCN(CC2CCN(CC3CCN(c4ccc5c(c4)oc(=O)n5C4CCC(=O)NC4=O)CC3)C2)CC1 (stereo not drawn) [Compound 541, 3-(6-(4-((3-((4-(4-amino-3-(4-phenoxyphenyl)-1H-pyrazolo[3,4-d]pyrimidin-1-yl)piperidin-1-yl)methyl)pyrrolidin-1-yl)methyl)piperidin-1-yl)-2-oxobenzo[d]oxazol-3(2H)-yl)piperidine-2,6-dione] | 10 to 50 | > 75 | 1000 to 10000 | 1000 to 10000 | 
4 | Nc1ncnc2c1c(-c1ccc(Oc3ccccc3)cc1)nn2C1CCN(CCN2CCC(CN3CCC(c4ccc5c(c4)oc(=O)n5C4CCC(=O)NC4=O)CC3)C2)CC1 (stereo not drawn) [Compound 542, 3-(6-(1-((1-(2-(4-(4-amino-3-(4-phenoxyphenyl)-1H-pyrazolo[3,4-d]pyrimidin-1-yl)piperidin-1-yl)ethyl)pyrrolidin-3-yl)methyl)piperidin-4-yl)-2-oxobenzo[d]oxazol-3(2H)-yl)piperidine-2,6-dione] | 10 to 50 | > 75 | 1000 to 10000 | 1000 to 10000 | 
5 | Nc1ncnc2c1c(-c1ccc(Oc3ccccc3)cc1)nn2C1CCN(CCCN2CCC(CN3CCC(c4ccc5c(c4)oc(=O)n5C4CCC(=O)NC4=O)CC3)C2)CC1 (stereo not drawn) [Compound 543, 3-(6-(1-((1-(3-(4-(4-amino-3-(4-phenoxyphenyl)-1H-pyrazolo[3,4-d]pyrimidin-1-yl)piperidin-1-yl)propyl)pyrrolidin-3-yl)methyl)piperidin-4-yl)-2-oxobenzo[d]oxazol-3(2H)-yl)piperidine-2,6-dione] | 10 to 50 | > 75 | 1000 to 10000 | 1000 to 10000 | 
6 | Nc1ncnc2c1c(-c1ccc(Oc3ccccc3)cc1)nn2C1CCN(CC2CCN(CC3CCN(c4ccc5c(c4)oc(=O)n5C4CCC(=O)NC4=O)CC3)CC2)CC1 (stereo not drawn) [Compound 544, 3-(6-(4-((4-((4-(4-amino-3-(4-phenoxyphenyl)-1H-pyrazolo[3,4-d]pyrimidin-1-yl)piperidin-1-yl)methyl)piperidin-1-yl)methyl)piperidin-1-yl)-2-oxobenzo[d]oxazol-3(2H)-yl)piperidine-2,6-dione] | 10 to 50 | > 90 | 1000 to 10000 | 1000 to 10000 | 
7 | Nc1ncnc2c1c(-c1ccc(Oc3ccccc3)cc1)nn2C1CCN(CCN2CCC(CN3CCC(c4ccc5c(c4)oc(=O)n5C4CCC(=O)NC4=O)CC3)CC2)CC1 (stereo not drawn) [Compound 545, 3-(6-(1-((1-(2-(4-(4-amino-3-(4-phenoxyphenyl)-1H-pyrazolo[3,4-d]pyrimidin-1-yl)piperidin-1-yl)ethyl)piperidin-4-yl)methyl)piperidin-4-yl)-2-oxobenzo[d]oxazol-3(2H)-yl)piperidine-2,6-dione] | 10 to 50 | > 90 | < 1000 | 1000 to 10000 | 
8 | Nc1ncnc2c1c(-c1ccc(Oc3ccccc3)cc1)nn2C1CCN(CC2CCN(CC3CCN(c4ccc(N5CCC(=O)NC5=O)cc4)CC3)CC2)CC1 [Compound 552] | < 10 | > 90 |  | < 1000 | < 1000
9 | Nc1ncnc2c1c(-c1ccc(Oc3ccccc3)cc1)nn2C1CCN(CCN2CCC(CN3CCC(c4ccc(N5CCC(=O)NC5=O)cc4)CC3)CC2)CC1 [Compound 553, 1-(4-(1-((1-(2-(4-(4-amino-3-(4-phenoxyphenyl)-1H-pyrazolo[3,4-d]pyrimidin-1-yl)piperidin-1-yl)ethyl)piperidin-4-yl)methyl)piperidin-4-yl)phenyl)dihydropyrimidine-2,4(1H,3H)-dione] | < 10 | > 90 |  | < 1000 | < 1000

Second part, led by results:

Row | DC50 (BTK) [nM] | Dmax (BTK) [%] | Structure (SMILES) | IC50 (Mino cells; MINO) [nM] | IC50 (JeKo-1 cells) [nM] | IC50 (Mino cells) [nM]
10 | < 10 | > 90 | Nc1ncnc2c1c(-c1ccc(Oc3ccccc3)cc1)nn2C1CCN(CCCN2CCC(CN3CCC(c4ccc5c(c4)oc(=O)n5C4CCC(=O)NC4=O)CC3)CC2)CC1 (stereo not drawn) [Compound 546, 3-(6-(1-((1-(3-(4-(4-amino-3-(4-phenoxyphenyl)-1H-pyrazolo[3,4-d]pyrimidin-1-yl)piperidin-1-yl)propyl)piperidin-4-yl)methyl)piperidin-4-yl)-2-oxobenzo[d]oxazol-3(2H)-yl)piperidine-2,6-dione] | 1000 to 10000 | < 1000 | 
11 | < 10 | > 90 | Nc1ncnc2c1c(-c1ccc(Oc3ccccc3)cc1)nn2C1CCN(CC2CCN(CC3CCN(c4ccc(N5CCC(=O)NC5=O)cc4)CC3)C2)CC1 (stereo not drawn) [Compound 547, 1-(4-(4-((3-((4-(4-amino-3-(4-phenoxyphenyl)-1H-pyrazolo[3,4-d]pyrimidin-1-yl)piperidin-1-yl)methyl)pyrrolidin-1-yl)methyl)piperidin-1-yl)phenyl)dihydropyrimidine-2,4(1H,3H)-dione] | 1000 to 10000 | 1000 to 10000 | 
12 | < 10 | > 75 | Nc1ncnc2c1c(-c1ccc(Oc3ccccc3)cc1)nn2C1CCN(CCN2CCC(CN3CCC(c4ccc(N5CCC(=O)NC5=O)cc4)CC3)C2)CC1 (stereo not drawn) [Compound 548, 1-(4-(1-((1-(2-(4-(4-amino-3-(4-phenoxyphenyl)-1H-pyrazolo[3,4-d]pyrimidin-1-yl)piperidin-1-yl)ethyl)pyrrolidin-3-yl)methyl)piperidin-4-yl)phenyl)dihydropyrimidine-2,4(1H,3H)-dione] | < 1000 | < 1000 | 
13 | < 10 | > 90 | Nc1ncnc2c1c(-c1ccc(Oc3ccccc3)cc1)nn2C1CCN(CCN2CCC(CN3CCN(c4ccc(N5CCC(=O)NC5=O)cc4)CC3)C2)CC1 (stereo not drawn) [Compound 549, 1-(4-(4-((1-(2-(4-(4-amino-3-(4-phenoxyphenyl)-1H-pyrazolo[3,4-d]pyrimidin-1-yl)piperidin-1-yl)ethyl)pyrrolidin-3-yl)methyl)piperazin-1-yl)phenyl)dihydropyrimidine-2,4(1H,3H)-dione] | < 1000 | < 1000 | 
14 | 10 to 50 | > 90 | Nc1ncnc2c1c(-c1ccc(Oc3ccccc3)cc1)nn2C1CCN(CCCN2CCC(CN3CCC(c4ccc(N5CCC(=O)NC5=O)cc4)CC3)C2)CC1 (stereo not drawn) [Compound 550, 1-(4-(1-((1-(3-(4-(4-amino-3-(4-phenoxyphenyl)-1H-pyrazolo[3,4-d]pyrimidin-1-yl)piperidin-1-yl)propyl)pyrrolidin-3-yl)methyl)piperidin-4-yl)phenyl)dihydropyrimidine-2,4(1H,3H)-dione] | < 1000 | < 1000 | 
15 | 10 to 50 | > 90 | Nc1ncnc2c1c(-c1ccc(Oc3ccccc3)cc1)nn2C1CCN(CCCN2CCC(CN3CCN(c4ccc(N5CCC(=O)NC5=O)cc4)CC3)C2)CC1 (stereo not drawn) [Compound 551, 1-(4-(4-((1-(3-(4-(4-amino-3-(4-phenoxyphenyl)-1H-pyrazolo[3,4-d]pyrimidin-1-yl)piperin-1-yl)propyl)pyrrolidin-3-yl)methyl)piperazin-1-yl)phenyl)dihydropyrimidine-2,4(1H,3H)-dione] | < 1000 | < 1000 | 
16 | < 10 | > 90 | Nc1ncnc2c1c(-c1ccc(Oc3ccccc3)cc1)nn2C1CCN(CCN2CCC(CN3CCN(c4ccc(N5CCC(=O)NC5=O)cc4)CC3)CC2)CC1 [Compound 554, 1-(4-(4-((1-(2-(4-(4-amino-3-(4-phenoxyphenyl)-1H-pyrazolo[3,4-d]pyrimidin-1-yl)piperidin-1-yl)ethyl)piperidin-4-yl)methyl)piperazin-1-yl)phenyl)dihydropyrimidine-2,4(1H,3H)-dione] | < 1000 | < 1000 | 
17 | 10 to 50 | > 90 | Nc1ncnc2c1c(-c1ccc(Oc3ccccc3)cc1)nn2C1CCN(CCCN2CCC(CN3CCC(c4ccc(N5CCC(=O)NC5=O)cc4)CC3)CC2)CC1 [Compound 555, 1-(4-(1-((1-(3-(4-(4-amino-3-(4-phenoxyphenyl)-1H-pyrazolo[3,4-d]pyrimidin-1-yl)piperidin-1-yl)propyl)piperidin-4-yl)methyl)piperidin-4-yl)phenyl)dihydropyrimidine-2,4(1H,3H)-dione] | < 1000 | < 1000 | 
18 | < 10 | > 90 | Nc1ncnc2c1c(-c1ccc(Oc3ccccc3)cc1)nn2C1CCN(CCCN2CCC(CN3CCN(c4ccc(N5CCC(=O)NC5=O)cc4)CC3)CC2)CC1 [Compound 556, 1-(4-(4-((1-(3-(4-(4-amino-3-(4-phenoxyphenyl)-1H-pyrazolo[3,4-d]pyrimidin-1-yl)piperidin-1-yl)propyl)piperidin-4-yl)methyl)piperazin-1-yl)phenyl)dihydropyrimidine-2,4(1H,3H)-dione] | < 1000 | < 1000 | 
